According to patent US10322154B2, “Sandalwood oil and its uses related to clostridium infections” (Santalis Pharmaceuticals, Inc., priority 2012, dated 2019):
Several values for one entry are separate records, joined by “and”; a condition that tells them apart may be missing. Identical values can stand only once.

System: Clostridium difficile
Experiment: C. difficile challenge in mice, qualitative fecal pellet analysis
Format: in vivo, C57BL/6 mouse
Set-up: key: +: positive (for the presence of C. difficile in the stool); −: negative
Settings: 50 mg/kg oral gavage Days 0-4, per animal
Procedure: Challenge Preparation: Challenge preparation was performed inside an anaerobe glove box in IW 305 in order to minimize oxygen exposure. A seed stock of the challenge organism (C. difficile) was thawed and added to the appropriate growth medium on Day −1. The organism was incubated anaerobically overnight (18-24 hrs) at 37° C. On the day of challenge (Day 0), the culture was diluted in DPBS to achieve a target concentration of 10^4 CFU/dose. Syringes with attached gavage needles were loaded with challenge material and placed on ice for transfer to the animal group.
Polymer Carrier: The polymer carrier used in these studies was a composition comprising polyethylene glycol 8000 (PEG8000) and hydroxypropyl methylcellulose acetate succinate (HPMCAS-LF). HPMCAS-LF was used to make the polymer insoluble at low pH. The formulation comprising a polymer carrier and sandalwood oil comprised about 50% PEG8000, about 41.67% sandalwood oil and about 8.33% HPMCAS-LF.
60 female C57BL\6 mice that weighed approximately 26-30 grams and were approximately 7-11 weeks old on Day 0 were used. The C57BL/6 mouse is susceptible to C. difficile and used extensively as a good animal model for the evaluation of antibacterial therapeutics. Treatments were administered via oral gavage and/or intraperitoneally in order to mimic treatment in humans. The challenge was administered via oral gavage as this is both an effective and minimally invasive route of administration that mimics the natural route of infection.
The body weights required for randomization were determined in Week −1 (the lowest body weights were excluded from randomization). After randomization, mice were assigned to one of six groups as indicated below in Table 6:
Treatment Procedure: All treatment doses were vortexed before administration to animals. On Days −6, −5 and −4, animals were administered the antibiotic cocktail via oral gavage at a volume of 0.3 mL. Treatments were administered ±1 hour from the initial day of dosing. On Day −1, animals were administered Clindamycin (10 mg/kg) via intraperitoneal (IP) at a volume of 0.4 mL. Post-challenge on Days 0-4, animals were administered the appropriate test article as listed in the table above via oral gavage at a volume of 0.3 mL. Treatments were administered ±1 hour from the initial day of dosing.
Challenge: On Day 0, mice were challenged via oral gavage with Clostridium difficile at a volume of 0.2 mL. The bacterial suspension was supplied (and maintained) on ice in pre filled syringes and inverted prior to administration to each group. […]
Microbiology Analysis: To isolate C. difficile, fecal pellets or swabs were solubilized in PBS and then cultured onto CDSA. […] Results were recorded as positive (for the presence of C. difficile in the stool) or negative.

`CN[C@H](CC(C)C)C(=O)N[C@H]1C(=O)N[C@@H](CC(N)=O)C(=O)N[C@H]2C(=O)N[C@H]3C(=O)N[C@H](C(=O)N[C@H](C(=O)O)c4cc(O)cc(O)c4-c4cc3ccc4O)[C@H](O)c3ccc(c(Cl)c3)Oc3cc2cc(c3O[C@@H]2O[C@H](CO)[C@@H](O)[C@H](O)[C@H]2O[C@H]2C[C@](C)(N)[C@H](O)[C@H](C)O2)Oc2ccc(cc2Cl)[C@H]1O` [Vancomycin] was tested, and the “Qualitative Fecal Pellet Analysis (presence of C. difficile in the stool)” value (shortened to “Qualitative Fecal Pellet Analysis”) (Day 1) was “−”, the “Qualitative Fecal Pellet Analysis” value (Day 2, 50 mg/kg) was “− (9×) and +” and the “Qualitative Fecal Pellet Analysis” value (Day 3) was “−”. The “Qualitative Fecal Pellet Analysis” value (Day 4) was “−”.
